{"source": "patent US5691310A", "about": "“Methods of treatment using proANF peptides” (priority 1995, dated 1997)", "key": {"porcine aorta": {"system": "porcine aorta", "test": "vasodilation of porcine aortic strips preconstricted with 0.3 micromolar phenylephrine", "design": "species or system pig", "protocol": "30 Kg pigs are sacrificed, and aortic strips are harvested. The strips are attached to F-60 transducer (Narco-BioSystems, Houston, Tex.) and attached to a physiography (Narco-BioSystems) while being submerged in a muscle tissue bath comprising a Krebs Ringer solution at 37° C., with 95% 02 -5% CO2, bubbled through the bath. Percentage vasodilation is measured versus time (as reported in FIG. 1) after preconstriction with 0.3 micromolar phenylephrine."}, "[1]": {"system": "particulate guanylate cyclase", "test": "cyclic GMP / particulate guanylate cyclase activation in cultured smooth muscle cells and porcine aorta", "format": "cell-based", "settings": "cultured smooth muscle cells"}, "Munich-Wistar rats": {"system": "Munich-Wistar rats", "test": "rat clearance model (diuresis and salt excretion)", "format": "in vivo", "protocol": "The same three peptides and ANF from Example I are tested using the rat clearance model. Six control rats and six experimental Munich-Wistar rats, each weighing 150-200 grams, are used for each peptide, with catheters being placed in both jugular veins and in the femoral artery. The ureters are cannulated for simultaneous urine collections with femoral artery blood collections.\nAfter inserting the catheters, a stabilization of one hour is allowed. A 10 μg/kg bolus of each of the respective human sequences of the peptides is given via the jugular vein to six experimental rats followed by a sustaining infusion of 0.1 μg/kg/min for 60 minutes. Blood and urine samples are collected at 20 minute intervals during this 60 minute infusion. In both the control and experimental animals, hematocrits and plasma sodium values remained at the same levels pre- and post-infusion while blood pressure decreased with each of these peptides (see Attachment B)."}, "[2]": {"system": "particulate guanylate cyclase", "test": "particulate guanylate cyclase activity in the kidney", "format": "biochemical", "settings": "1 μM; whole kidney homogenates, renal cortical and medullary membranes, isolated distal nephron", "method": "Testing is also carried out to determine biologic effects of these peptides by measuring their effects on particulate guanylate activity in the kidney."}, "[3]": {"test": "overcoming the negative ionotropic effect of Verapamil"}, "healthy human subjects": {"system": "healthy human subjects", "test": "infusion into healthy human subjects", "format": "in vivo", "settings": "healthy humans", "protocol": "Infusion of these peptides into healthy human subjects was performed as follows: Human pro-ANF 1-30, pro-ANF 31-67, and pro-ANF 79-98, and hANF (i.e., pro-ANF […], were synthesized by Peninsula Laboratories (Belmont, Calif.). High pressure liquid chromatography (HPLC) analysis was performed on a sample of each of the four peptides to ensure purity. The peptides were dissolved in a sterile 0.9% saline solution to a concentration of 100 μg/ml and dispensed in 2 and 5 ml aliquots into sealed sterile vials. At the time of dispensing, randomly selected vials were tested for pyrogens and sterility. Prior to labeling the vials, the actual peptide content of the dispensed solution were determined by direct radioimmunoassay to account for any possible absorption of the respective peptides to the walls of the vials. All vials were then stored at -80° C. until thawed for individual study.\nNormal healthy subjects were chosen on the basis of age (between 20 and 50 years), physical examination and biochemical screenings. The subjects consumed their normal diets prior to testing. The subjects fasted overnight and were tested in the morning in the seated position. Intravenous catheters were placed bilaterally for the administration of pro-hANF 1-30, pro-hANF 31-67, pro-hANF 79-98 and hANF [pro-hANF 99-126] and for blood sampling. After completion of a 45-minute equilibration period, there were three 60-minute phases of the study: baseline, experimental infusion (60 minutes) and recovery (3 hours). The baseline phase consisted of two 30 minute urine collection periods, the experimental phase consisted of three 20 minute urine and plasma collection periods, and the recovery phase consisted of two 30 minute urine and plasma collection periods each hour for three hours post-infusion. Urine output was replaced on a milliliter per milliliter basis throughout the study by administering oral water or orange juice. Urine samples were obtained by voiding at the designated collection periods.\nThe 36 subjects were divided into 6 groups. One group (i.e., the control group) received a placebo infusion of 0.9% sodium chloride during the experimental infusion phase. […] The four remaining groups of six subjects each received human pro-hANF 1-30, pro-hANF 31-67, pro-hANF 79-98 and hANF. The four groups received the peptides by continuous infusion at the rate of 0.1 μg/kg per minute. The volume administered per hour during the experimental infusion phase was 10 ml for all four peptides and the placebo. All infusions were given by a constant-rate infusion pump, with the final concentrations of prohANFs adjusted for the subjects' body weight. The subjects heart rate and cuff blood pressure were taken at 5 minute intervals throughout the study. The excreted urine was analyzed for sodium concentration."}, "[4]": {"system": "human subjects with class II New York Heart Association congestive heart failure", "test": "infusion into human subjects with congestive heart failure", "format": "in vivo", "protocol": "Human proANF's 1-30, 31-67, 79-98, and 99-126 (i.e., ANF) were infused into human subjects with class II New York Heart Association congestive heart failure. An identical protocol to that used in example V where these peptides were infused into healthy human subjects was utilized. (See Attachment C for a detailed description of this protocol). The human subjects with congestive heart failure received an identical dose (0.1 μg/kg body wt/minute for 60 minutes) that the healthy human subjects received."}, "[5]": {"system": "rats who have acute renal failure", "test": "blood urea nitrogen in rats with acute renal failure", "format": "in vivo, rat", "settings": "over three days", "text": "FIG. 6. ProANF 31-67 (i.e., vessel dilator) prevents the rise in blood urea nitrogen (BUN) in rats who have acute renal failure."}, "[6]": {"system": "renal medullary Na+-K+-ATPase", "test": "inhibition of renal medullary Na+-K+-ATPase activity", "format": "biochemical", "settings": "10^-11 M"}, "[7]": {"settings": "congestive heart failure, 0.1 μg/kg body wt/minute"}}, "data": [{"substance": "H-EVVPPQVLSEPNEEAGAALSPLPEVPPWTGEVSPAQR-OH [proANF 31-67, H-Glu-Val-Val-Pro-Pro-Gln-Val-Leu-Ser-Glu-Pro-Asn-Glu-Glu-Ala-Gly-Ala-Ala- Leu-Ser-Pro-Leu-Pro-Glu-Val-Pro-Pro-Trp-Thr-Gly-Glu-Val-Ser-Pro-Ala-Gln-Arg-OH]", "values": [{"measurement": "increase in cyclic GMP levels over baseline levels", "setting": "porcine aorta; associated with vasodilation of porcine aorta", "value": "four-to-five"}, {"measurement": "vasodilation", "setting": "porcine aorta; porcine aorta", "value": "cause vasodilation"}, {"measurement": "cyclic GMP levels", "setting": "[1]", "value": "increase cyclic GMP levels"}, {"measurement": "UNa V, urinary sodium excretion rate", "setting": "Munich-Wistar rats; period A, control period (before peptide)", "value": "144.08 ± 56.75 μeq-min^-1 -g kidney wt^-1"}, {"measurement": "UNa V, urinary sodium excretion rate", "setting": "Munich-Wistar rats; period B, 1st 60min experimental period, 10 μg/kg bolus then 0.1 μg/kg/min", "value": "1,057.68 ± 371.69 μeq-min^-1 -g kidney wt^-1"}, {"measurement": "UNa V, urinary sodium excretion rate", "setting": "Munich-Wistar rats; period C, 2nd 60min experimental period", "value": "1,077.63 ± 306.10 μeq-min^-1 -g kidney wt^-1"}, {"measurement": "particulate guanylate cyclase activity", "setting": "[2]", "value": "enhance particulate guanylate cyclase"}, {"measurement": "negative ionotropic (slowing heartbeat) effect of Verapamil", "setting": "[3]", "value": "can overcome the negative ionotropic (slowing heartbeat) effect"}, {"measurement": "increase of urine flow", "setting": "healthy human subjects", "value": "4-12 fold"}, {"measurement": "urine volume / urine flow (in words)", "setting": "healthy human subjects; 100 ng/kg body wt per minute for 1 hour i.v.", "value": "increase in urine volume"}, {"measurement": "sodium excretion compared to baseline (in words)", "setting": "healthy human subjects; 100 ng/kg body wt per minute for 60 minutes", "value": "significantly (P<0.05) increased sodium excretion"}, {"measurement": "systolic and diastolic blood pressures", "setting": "healthy human subjects; 100 ng/kg/min i.v. for 60 minutes", "value": "decreasing systolic and diastolic blood pressures"}, {"measurement": "urine output at 3 hours after stopping the infusion relative to pre-infusion values", "setting": "[4]; congestive heart failure", "value": 10, "unit": "fold"}, {"measurement": "diuretic properties (in words)", "setting": "[4]; congestive heart failure patients", "value": "stronger diuretic properties than ANF"}, {"measurement": "urine output in 20 minutes of infusion", "setting": "[4]; [7]", "value": "doubled"}, {"measurement": "urine output increase at the end of the 60 minute infusion", "setting": "[4]; [7]", "value": 7, "unit": "fold"}, {"measurement": "urine output per 30 minute period", "setting": "[4]; congestive heart failure, 3 hours after stopping the infusion (pre-infusion 30 mls)", "value": 320, "unit": "mls"}, {"measurement": "increase of sodium excretion", "setting": "[4]; human subjects with congestive heart failure", "value": "three-to-eight"}, {"measurement": "time after stopping the infusion for which diuresis / urine flow is still significantly (P<0.01) elevated", "setting": "[4]; humans with congestive heart failure", "value": "at least 3 hours"}, {"measurement": "rise in blood urea nitrogen (BUN)", "setting": "[5]", "value": "completely blocked the increase in BUN"}, {"measurement": "inhibition of renal medullary Na+-K+-ATPase activity", "setting": "[6]", "value": "Inhibition of renal medullary Na+-K+-ATPase activity"}]}]}
